Tests used:
[1] = tested on: RPMI-8402 (T-Lymphoblastic Leukemia); assay: Bliss excess, mean over the matrix (fraction); higher = more synergy
In short: (§1)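 After 24 hours at 37°C and 5% CO2 in 1536-well plates, cells in DMEM/F12 or RPMI plus 10% FBS received two-drug dose matrices for 72 hours. Viability came from CellTiter-Glo 2.0 luminescence and was scaled as inhibition, anchored at 0 by vehicle wells and at 1 by blank wells. Combination Emax is taken as the second-highest inhibition in the matrix, and Bliss excess as the observed combination effect less EA + EB − EA·EB, with EA and EB the single-agent effects.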

[2] = tested on: SK-N-DZ (Neuroblastoma); assay: as above
In short: as §1

[3] = tested on: NCI-H1048 (Small Cell Lung Carcinoma); assay: as above
In short: as §1

[4] = tested on: JJN-3 (Plasma Cell Myeloma); assay: as above
In short: as §1

[5] = tested on: Daudi (Burkitt's Lymphoma); assay: as above
In short: as §1

[6] = tested on: A375 (Melanoma); assay: as above
In short: as §1

[7] = tested on: GRANTA-519 (B-Cell Non-Hodgkin's Lymphoma); assay: as above
In short: as §1

[8] = tested on: SCC90 (Head and Neck Carcinoma); assay: as above
In short: as §1

[9] = tested on: MDA-MB-175-VII (Breast Carcinoma); assay: combination Emax (second highest fraction inhibited in the dose matrix, 72 h); higher = more inhibition; extreme values may be limits of the assay
In short: as §1

[10] = tested on: SK-N-DZ (Neuroblastoma); assay: as above
In short: as §1

[11] = tested on: NCI-H2170 (Squamous Cell Lung Carcinoma); assay: as above
In short: as §1

[12] = tested on: L-363 (Plasma Cell Myeloma); assay: as above
In short: as §1

[13] = tested on: NCI-H1048 (Small Cell Lung Carcinoma); assay: as above
In short: as §1

[14] = tested on: TOV-21G (Ovarian Carcinoma); assay: as above
In short: as §1

[15] = tested on: NCI-H2023 (Non-Small Cell Lung Carcinoma); assay: as above
In short: as §1

[16] = tested on: NCI-H1648 (Lung Adenocarcinoma); assay: as above
In short: as §1

[17] = tested on: GCIY (Gastric Carcinoma); assay: as above
In short: as §1

[18] = tested on: SCC90 (Head and Neck Carcinoma); assay: as above
In short: as §1

[19] = tested on: HT-144 (Melanoma); assay: as above
In short: as §1

[20] = tested on: BT-474 (Breast Carcinoma); assay: as above
In short: as §1
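For Bliss excess, mean over the matrix in this document: after 72 h of two-drug dosing.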

Compound	Bliss excess [1]	Bliss excess [2]	Bliss excess [3]	Bliss excess [4]	Bliss excess [5]	Bliss excess [6]	Bliss excess [7]	Bliss excess [8]	combination Emax [9]	combination Emax [10]	combination Emax [11]	combination Emax [12]	combination Emax [13]	combination Emax [14]	combination Emax [15]	combination Emax [16]	combination Emax [17]	combination Emax [18]	combination Emax [19]	combination Emax [20]
CC1(C)CCC(CN2CCN(c3ccc(C(=O)NS(=O)(=O)c4ccc(NCC5CCOCC5)c([N+](=O)[O-])c4)c(Oc4cnc5[nH]ccc5c4)c3)CC2)=C(c2ccc(Cl)cc2)C1 [Venetoclax] + C=CCn1c(=O)c2cnc(Nc3ccc(N4CCN(C)CC4)cc3)nc2n1-c1cccc(C(C)(C)O)n1 [AZD1775] (first compound max 1 µM, partner max 1 µM)	-0.0203	0.0353	0.0212	-0.0187	-0.0267	-0.0142	0.0734	-0.0466	0.444	0.999	0.652	1	0.92	0.703	0.713	0.595	0.824	0.838	0.509	0.516
CC1(C)CCC(CN2CCN(c3ccc(C(=O)NS(=O)(=O)c4ccc(NCC5CCOCC5)c([N+](=O)[O-])c4)c(Oc4cnc5[nH]ccc5c4)c3)CC2)=C(c2ccc(Cl)cc2)C1 [Venetoclax] + Cn1cnc2c(F)c(Nc3ccc(Br)cc3Cl)c(C(=O)NOCCO)cc21 [Selumetinib] (first compound max 1 µM, 7x7, partner max 3 µM)	-0.031	-0.0156	-0.0067	0.0473	-0.0208	-0.0437	-0.03	0.161	0.255	0.246	0.107	0.833	0.153	0.216	0.177	0.496	0.514	0.726	0.654	0.0915
NC1(C(=O)N[C@@H](CCO)c2ccc(Cl)cc2)CCN(c2ncnc3[nH]ccc23)CC1 [Capivasertib] + CC(C)n1c(=O)n(C)c2cnc3cc(F)c(-c4ccc(OCCCN5CCCCC5)nc4)cc3c21 [AZD1390] (first compound max 10 µM, 7x7, partner max 0.3 µM)	-0.0456	-0.0605	-0.037	-0.0105	-0.0326	-0.0496	-0.0859	-0.0484	0.635	0.218	0.54	0.465	0.439	0.723	0.409	0.585	0.397	0.825	0.606	0.299
Cc1c2c(nn1C)CSCc1cc(n(C)n1)CSc1cc(c3ccccc3c1)OCCCc1c(C(=O)O)n(C)c3c-2c(Cl)ccc13 [AZD5991] + C=CCn1c(=O)c2cnc(Nc3ccc(N4CCN(C)CC4)cc3)nc2n1-c1cccc(C(C)(C)O)n1 [AZD1775] (first compound max 1 µM, partner max 1 µM)	-0.0295	0.0464	0.0002	-0.0331	-0.0124	0.0237	-0.055	-0.0001	0.216	0.948	0.749	1	1	0.732	0.603	0.796	0.545	0.952	0.969	0.469
COc1cccc(OCCCN)c1-c1cc(Nc2cnc(C#N)cn2)n[nH]1 [Prexasertib] + C=CCn1c(=O)c2cnc(Nc3ccc(N4CCN(C)CC4)cc3)nc2n1-c1cccc(C(C)(C)O)n1 [AZD1775] (first compound max 1 µM, partner max 1 µM)	0.0389	0.0202	0.101	0.085	0.0677	0.0888	-0.0138	0.0902	0.424	1	0.95	1	0.955	0.618	0.853	0.83	0.911	0.94	0.838	0.234
COc1cccc(OCCCN)c1-c1cc(Nc2cnc(C#N)cn2)n[nH]1 [Prexasertib] + O=C(c1cc(Cc2n[nH]c(=O)c3ccccc23)ccc1F)N1CCN(C(=O)C2CC2)CC1 [Olaparib] (first compound max 1 µM, 7x7, partner max 10 µM)	-0.0292	-0.0511	-0.0073	0.0165	-0.058	-0.0101	-0.105	-0.095	0.376	0.97	0.787	1	0.894	0.579	0.801	0.802	0.837	0.679	0.712	0.24
CS(=O)(=O)CCNCc1ccc(-c2ccc3ncnc(Nc4ccc(OCc5cccc(F)c5)c(Cl)c4)c3c2)o1 [Lapatinib] + C[C@@H](Oc1cc(-c2cnn(C3CCNCC3)c2)cnc1N)c1c(Cl)ccc(F)c1Cl [Crizotinib] (first compound max 10 µM, 7x7, partner max 10 µM)	-0.0375	-0.0702	-0.0255	-0.0287	-0.0179	-0.0461	0.0192	0.0827	1	0.899	0.998	0.932	0.525	0.953	0.687	0.971	0.882	0.946	0.998	0.905
COc1cccc(OCCCN)c1-c1cc(Nc2cnc(C#N)cn2)n[nH]1 [Prexasertib] + Cc1cc2ncnn2cc1Nc1ncc2c(n1)n(C1CCOCC1)c(=O)n2C [AZD7648] (first compound max 1 µM, 7x7, partner max 10 µM)	-0.0127	-0.0049	-0.0275	-0.0097	0.0017	0.0029	-0.0489	-0.036	0.367	1	0.88	0.985	0.735	0.617	0.801	0.762	0.879	0.755	0.72	0.222
CN(CCO)CC[C@H](CSc1ccccc1)Nc1ccc(S(=O)(=O)NC(=O)c2ccc(N3CCC([C@@H](O)c4ccccc4-c4ccc(Cl)cc4)CC3)cc2)cc1S(=O)(=O)C(F)(F)F [AZD4320] + C=CCn1c(=O)c2cnc(Nc3ccc(N4CCN(C)CC4)cc3)nc2n1-c1cccc(C(C)(C)O)n1 [AZD1775] (first compound max 1 µM, partner max 1 µM)	0.0269	0.0351	0.27	-0.0535	-0.0249	0.0133	0.0729	0.0385	0.32	1	0.8	1	1	0.721	0.623	0.707	0.708	0.85	0.654	0.526
NC1(C(=O)N[C@@H](CCO)c2ccc(Cl)cc2)CCN(c2ncnc3[nH]ccc23)CC1 [Capivasertib] + COc1nnc2ccc(N3CCC(c4ccc(OCCN5CCN(C)C(=O)[C@H]5C)cc4)CC3)nn12 [AZD5153] (first compound max 10 µM, 7x7, partner max 1 µM)	-0.0484	0.0675	0.0588	-0.0242	0.045	0.009	-0.0148	0.0079	0.571	0.646	0.594	0.879	0.71	0.892	0.362	0.753	0.735	0.986	0.855	0.416
Cc1c2c(nn1C)CSCc1cc(n(C)n1)CSc1cc(c3ccccc3c1)OCCCc1c(C(=O)O)n(C)c3c-2c(Cl)ccc13 [AZD5991] + C[C@@H](Nc1cc(F)cc(F)c1)c1cc(C(=O)N(C)C)cc2c(=O)cc(N3CCOCC3)oc12 [AZD8186] (first compound max 1 µM, 7x7, partner max 3 µM)	0.0272	-0.0328	0.0019	-0.0448	0.0234	-0.0124	-0.0444	0.0186	0.313	0.232	0.275	1	0.965	0.253	0.377	0.844	0.565	0.903	0.901	0.594
CCN(CCO)CCCOc1ccc2c(Nc3cc(CC(=O)Nc4cccc(F)c4)[nH]n3)ncnc2c1 [AZD2811] + O=C(c1cc(Cc2n[nH]c(=O)c3ccccc23)ccc1F)N1CCN(C(=O)C2CC2)CC1 [Olaparib] (first compound max 1 µM, 7x7, partner max 10 µM)	-0.0279	-0.0696	-0.0161	0.0422	0.104	0.0039	0.0274	0.0459	0.23	0.405	0.623	0.184	0.698	0.288	0.415	0.233	0.427	0.303	0.309	0.168

Source: the supplement of paper PMC11061612
